Experiments:
[1] = Plasma Stability Assay (human plasma); type: in vitro ADME; settings: both sexes; pooled human plasma, heparin, final conc. 2 μM, 37° C., 0-120 min; read-out: Human Plasma Stability t1/2
Summary of the method: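 Compound at 2 μM final in pooled heparinised plasma (3 male, 3 female), incubated at 37° C with sampling at 0, 10, 30, 60 and 120 min. Acetonitrile stop, LC-MS/MS; % remaining from analyte/internal-standard peak area ratio relative to T0.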

[2] = Whole Blood Stability Assay (mouse whole blood); type: in vitro ADME; settings: CD-1 mouse blood, EDTA-K2, final conc. 2 μM, 37° C., 0-120 min; for half-life at 2 μM: male, fresh whole blood, read-out: Mouse Whole Blood Stability t1/2
Summary of the method: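 Compound at 2 μM final was incubated at 37 °C in fresh EDTA-K2 blood from male CD-1 mice. Samples at 0, 10, 30, 60 and 120 min were protein-precipitated with acetonitrile and analysed by LC-MS/MS. % remaining was derived from analyte/internal-standard peak area ratios.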

| half-life at 2 μM [1] [h] | Mouse Whole Blood Stability t1/2 [2] [min] | SMILES | half-life at 2 μM [2] [h] |
| --- | --- | --- | --- |
| > 4.82 | – | CCc1c(F)ccc2cc(OC(=O)C3(C)CCC3)cc(N3CCc4c(nc(OC[C@@]56CCCN5C[C@H](F)C6)nc4N4CCC[C@]5(C4)NC(=O)NC5=O)C3)c12 [Example 61, 4-(4-((R)-2,4-dioxo-1,3,7-triazaspiro[4.5]decan-7-yl)-2-(((2R,7aS)-2-fluorotetrahydro-1H-pyrrolizin-7a(5H)-yl)methoxy)-5,8-dihydropyrido[3,4-d]pyrimidin-7(6H)-yl)-5-ethyl-6-fluoronaphthalen-2-yl 1-methylcyclobutane-1-carboxylate] | 0.0333 |
| 0.633 | 1 | CCc1c(F)ccc2cc(OC(=O)C3(C)COC3)cc(N3CCc4c(nc(OC[C@@]56CCCN5C[C@H](F)C6)nc4N4CCC[C@]5(C4)NC(=O)NC5=O)C3)c12 [Example 62, 4-(4-((R)-2,4-dioxo-1,3,7-triazaspiro[4.5]decan-7-yl)-2-(((2R,7aS)-2-fluorotetrahydro-1H-pyrrolizin-7a(5H)-yl)methoxy)-5,8-dihydropyrido[3,4-d]pyrimidin-7(6H)-yl)-5-ethyl-6-fluoronaphthalen-2-yl 3-methyloxetane-3-carboxylate] | – |
| > 4.82 | – | CCc1c(F)ccc2cc(OC(=O)C34CC5CC(CC(C5)C3)C4)cc(N3CCc4c(nc(OC[C@@]56CCCN5C[C@H](F)C6)nc4N4CCC[C@]5(C4)NC(=O)NC5=O)C3)c12 [Example 63, 4-(4-((R)-2,4-dioxo-1,3,7-triazaspiro[4.5]decan-7-yl)-2-(((2R,7aS)-2-fluorotetrahydro-1H-pyrrolizin-7a(5H)-yl)methoxy)-5,8-dihydropyrido[3,4-d]pyrimidin-7(6H)-yl)-5-ethyl-6-fluoronaphthalen-2-yl (3r,5r,7r)-adamantane-1-carboxylate] | 0.217 |
| 0.55 | – | CCc1c(F)ccc2cc(OC(=O)C3CCC3)cc(N3CCc4c(nc(OC[C@@]56CCCN5C[C@H](F)C6)nc4N4CCC[C@]5(C4)NC(=O)NC5=O)C3)c12 [Example 64, 4-(4-((R)-2,4-dioxo-1,3,7-triazaspiro[4.5]decan-7-yl)-2-(((2R,7aS)-2-fluorotetrahydro-1H-pyrrolizin-7a(5H)-yl)methoxy)-5,8-dihydropyrido[3,4-d]pyrimidin-7(6H)-yl)-5-ethyl-6-fluoronaphthalen-2-yl cyclobutanecarboxylate] | 0.0333 |
| > 4.82 | – | CCc1c(F)ccc2cc(OC(=O)C34CCC(CC3)CC4)cc(N3CCc4c(nc(OC[C@@]56CCCN5C[C@H](F)C6)nc4N4CCC[C@]5(C4)NC(=O)NC5=O)C3)c12 [Example 66, 4-(4-((R)-2,4-dioxo-1,3,7-triazaspiro[4.5]decan-7-yl)-2-(((2R,7aS)-2-fluorotetrahydro-1H-pyrrolizin-7a(5H)-yl)methoxy)-5,8-dihydropyrido[3,4-d]pyrimidin-7(6H)-yl)-5-ethyl-6-fluoronaphthalen-2-yl bicyclo[2.2.2]octane-1-carboxylate] | 0.117 |
| 4.45 | 1 | CCc1c(F)ccc2cc(OC(=O)C34CCC(C3)C4)cc(N3CCc4c(nc(OC[C@@]56CCCN5C[C@H](F)C6)nc4N4CCC[C@]5(C4)NC(=O)NC5=O)C3)c12 [Example 67, 4-(4-((R)-2,4-dioxo-1,3,7-triazaspiro[4.5]decan-7-yl)-2-(((2R,7aS)-2-fluorotetrahydro-1H-pyrrolizin-7a(5H)-yl)methoxy)-5,8-dihydropyrido[3,4-d]pyrimidin-7(6H)-yl)-5-ethyl-6-fluoronaphthalen-2-yl bicyclo[2.1.1]hexane-1-carboxylate] | – |

The remaining lines, values behind:

| SMILES | half-life at 2 μM [1] [h] | Mouse Whole Blood Stability t1/2 [2] [min] | half-life at 2 μM [2] [h] |
| --- | --- | --- | --- |
| CCc1c(F)ccc2cc(OC(=O)N3CCC(C)CC3)cc(N3CCc4c(nc(OC[C@@]56CCCN5C[C@H](F)C6)nc4N4CCC[C@]5(C4)NC(=O)NC5=O)C3)c12 [Example 56, 4-(4-((R)-2,4-dioxo-1,3,7-triazaspiro[4.5]decan-7-yl)-2-(((2R,7aS)-2-fluorotetrahydro-1H-pyrrolizin-7a(5H)-yl)methoxy)-5,8-dihydropyrido[3,4-d]pyrimidin-7(6H)-yl)-5-ethyl-6-fluoronaphthalen-2-yl 4-methylpiperidine-1-carboxylate] | > 4.82 | – | > 4.82 |
| CCc1c(F)ccc2cc(OC(=O)N3CCCC[C@H]3C)cc(N3CCc4c(nc(OC[C@@]56CCCN5C[C@H](F)C6)nc4N4CCC[C@]5(C4)NC(=O)NC5=O)C3)c12 [Example 57, 4-(4-((R)-2,4-dioxo-1,3,7-triazaspiro[4.5]decan-7-yl)-2-(((2R,7aS)-2-fluorotetrahydro-1H-pyrrolizin-7a(5H)-yl)methoxy)-5,8-dihydropyrido[3,4-d]pyrimidin-7(6H)-yl)-5-ethyl-6-fluoronaphthalen-2-yl (R)-2-methylpiperidine-1-carboxylate] | > 4.82 | – | > 4.82 |
| CCc1c(F)ccc2cc(OC(=O)N3CCC[C@@H](C)C3)cc(N3CCc4c(nc(OC[C@@]56CCCN5C[C@H](F)C6)nc4N4CCC[C@]5(C4)NC(=O)NC5=O)C3)c12 [Example 58, 4-(4-((R)-2,4-dioxo-1,3,7-triazaspiro[4.5]decan-7-yl)-2-(((2R,7aS)-2-fluorotetrahydro-1H-pyrrolizin-7a(5H)-yl)methoxy)-5,8-dihydropyrido[3,4-d]pyrimidin-7(6H)-yl)-5-ethyl-6-fluoronaphthalen-2-yl (R)-3-methylpiperidine-1-carboxylate] | > 4.82 | – | > 4.82 |
| CCc1c(F)ccc2cc(OC(=O)N3CCC[C@H](C)C3)cc(N3CCc4c(nc(OC[C@@]56CCCN5C[C@H](F)C6)nc4N4CCC[C@]5(C4)NC(=O)NC5=O)C3)c12 [Example 59, 4-(4-((R)-2,4-dioxo-1,3,7-triazaspiro[4.5]decan-7-yl)-2-(((2R,7aS)-2-fluorotetrahydro-1H-pyrrolizin-7a(5H)-yl)methoxy)-5,8-dihydropyrido[3,4-d]pyrimidin-7(6H)-yl)-5-ethyl-6-fluoronaphthalen-2-yl (S)-3-methylpiperidine-1-carboxylate] | > 4.82 | – | > 4.82 |
| CCc1c(F)ccc2cc(OC(=O)N3CCOCC3)cc(N3CCc4c(nc(OC[C@@]56CCCN5C[C@H](F)C6)nc4N4CCC[C@]5(C4)NC(=O)NC5=O)C3)c12 [Example 60, 4-(4-((R)-2,4-dioxo-1,3,7-triazaspiro[4.5]decan-7-yl)-2-(((2R,7aS)-2-fluorotetrahydro-1H-pyrrolizin-7a(5H)-yl)methoxy)-5,8-dihydropyrido[3,4-d]pyrimidin-7(6H)-yl)-5-ethyl-6-fluoronaphthalen-2-yl morpholine-4-carboxylate] | > 4.82 | – | 1.32 |
